Reference: the supplement of paper PMC12076712

Legend:
Test in all cases: pIC50, kinobeads binding competition
[1] = molecular target: UniProt Q00536
Summary of the method: (§1)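 Live Jurkat cells were treated with nine compound concentrations (top 30 μM, 1:4 steps) or DMSO for 60 min at 37 °C before lysis. Alternatively, Jurkat lysate or a 1:1:1:1 HEK293/K-562/HepG2/placenta lysate mix was incubated with nine concentrations (top 30 μM, 1:5 steps) for 60 min at 4 °C. Kinobeads-bound proteins were digested and quantified by TMT10 LC-MS/MS. pIC50 came from logistic dose-response fits (R drc package) of fold changes versus DMSO, in biological duplicates.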

[2] = molecular target: T1, PRKD2 (UniProt Q9BZL6)
T1 sequence (whole entry): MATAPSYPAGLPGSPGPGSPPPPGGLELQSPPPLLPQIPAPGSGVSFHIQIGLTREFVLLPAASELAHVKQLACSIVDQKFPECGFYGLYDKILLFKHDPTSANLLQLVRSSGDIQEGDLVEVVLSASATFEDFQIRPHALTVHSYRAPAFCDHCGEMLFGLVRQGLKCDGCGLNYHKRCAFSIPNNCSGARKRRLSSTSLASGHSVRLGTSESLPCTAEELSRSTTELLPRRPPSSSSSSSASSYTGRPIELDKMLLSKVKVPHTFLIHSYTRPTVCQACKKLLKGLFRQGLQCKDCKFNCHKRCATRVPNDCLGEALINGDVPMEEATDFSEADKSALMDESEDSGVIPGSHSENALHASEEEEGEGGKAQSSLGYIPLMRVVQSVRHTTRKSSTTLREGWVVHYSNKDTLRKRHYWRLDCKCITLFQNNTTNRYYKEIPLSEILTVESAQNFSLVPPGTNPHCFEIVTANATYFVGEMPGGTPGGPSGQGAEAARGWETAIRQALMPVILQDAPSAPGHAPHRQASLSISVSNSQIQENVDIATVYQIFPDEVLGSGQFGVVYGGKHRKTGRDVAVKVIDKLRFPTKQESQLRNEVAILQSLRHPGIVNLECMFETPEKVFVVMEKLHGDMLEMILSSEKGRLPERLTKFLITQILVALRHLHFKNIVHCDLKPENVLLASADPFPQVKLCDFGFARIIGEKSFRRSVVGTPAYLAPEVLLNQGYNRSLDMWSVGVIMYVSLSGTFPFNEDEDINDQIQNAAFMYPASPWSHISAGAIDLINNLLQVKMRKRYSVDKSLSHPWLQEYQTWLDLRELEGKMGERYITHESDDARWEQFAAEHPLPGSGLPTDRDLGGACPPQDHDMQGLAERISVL
Summary of the method: as §1

[3] = molecular target: T2, MAP4K3 (UniProt Q8IVH8)
T2 sequence (whole entry): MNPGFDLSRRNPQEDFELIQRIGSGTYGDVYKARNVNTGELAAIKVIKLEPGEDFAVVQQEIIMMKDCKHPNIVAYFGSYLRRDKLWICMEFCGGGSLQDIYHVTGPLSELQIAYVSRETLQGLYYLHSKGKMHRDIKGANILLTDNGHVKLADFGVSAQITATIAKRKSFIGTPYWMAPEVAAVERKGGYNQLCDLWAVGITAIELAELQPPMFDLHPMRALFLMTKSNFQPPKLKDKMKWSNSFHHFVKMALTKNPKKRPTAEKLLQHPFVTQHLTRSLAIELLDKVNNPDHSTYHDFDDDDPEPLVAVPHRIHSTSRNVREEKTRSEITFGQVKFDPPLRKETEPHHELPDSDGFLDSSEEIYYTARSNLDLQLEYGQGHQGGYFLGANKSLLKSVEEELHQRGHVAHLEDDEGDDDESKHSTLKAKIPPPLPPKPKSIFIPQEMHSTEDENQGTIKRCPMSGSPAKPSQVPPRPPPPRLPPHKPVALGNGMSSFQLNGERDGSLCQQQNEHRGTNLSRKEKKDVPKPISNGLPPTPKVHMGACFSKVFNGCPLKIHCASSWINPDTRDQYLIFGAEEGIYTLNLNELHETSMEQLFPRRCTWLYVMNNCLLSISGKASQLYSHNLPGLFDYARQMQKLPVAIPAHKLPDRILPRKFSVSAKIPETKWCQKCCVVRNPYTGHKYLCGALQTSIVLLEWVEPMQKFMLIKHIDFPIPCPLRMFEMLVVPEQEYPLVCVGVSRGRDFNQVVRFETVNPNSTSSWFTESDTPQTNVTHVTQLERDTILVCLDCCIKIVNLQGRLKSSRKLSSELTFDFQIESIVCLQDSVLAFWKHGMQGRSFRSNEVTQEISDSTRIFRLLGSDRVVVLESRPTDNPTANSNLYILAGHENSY
Summary of the method: as §1

[4] = molecular target: EPHA2 (UniProt P29317); settings: cell material: Lysate mix
Summary of the method: as §1

[5] = molecular target: RIPK2 (UniProt O43353); settings: cell material: Lysate mix
Summary of the method: as §1

[6] = molecular target: T3, TGFBR1 (UniProt P36897)
T3 sequence (whole entry): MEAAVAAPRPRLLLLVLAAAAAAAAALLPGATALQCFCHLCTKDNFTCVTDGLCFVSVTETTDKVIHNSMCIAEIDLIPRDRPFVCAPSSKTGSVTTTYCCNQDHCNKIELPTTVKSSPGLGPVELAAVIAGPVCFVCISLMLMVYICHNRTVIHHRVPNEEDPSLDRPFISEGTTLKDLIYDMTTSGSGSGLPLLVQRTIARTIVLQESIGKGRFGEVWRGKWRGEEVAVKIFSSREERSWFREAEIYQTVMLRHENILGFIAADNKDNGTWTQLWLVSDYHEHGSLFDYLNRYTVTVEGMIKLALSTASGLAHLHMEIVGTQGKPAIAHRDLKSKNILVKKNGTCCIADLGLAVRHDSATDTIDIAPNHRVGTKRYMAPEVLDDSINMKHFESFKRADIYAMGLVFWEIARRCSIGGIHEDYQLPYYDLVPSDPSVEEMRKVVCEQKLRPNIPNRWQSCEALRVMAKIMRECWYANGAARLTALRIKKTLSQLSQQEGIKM
Summary of the method: as §1

[7] = molecular target: UniProt Q16659
Summary of the method: as §1

[8] = molecular target: UniProt P35916; settings: cell material: Lysate mix
Summary of the method: as §1

[9] = molecular target: LCK (UniProt P06239)
Summary of the method: as §1

Chain of LCK (P06239 whole entry, looked up): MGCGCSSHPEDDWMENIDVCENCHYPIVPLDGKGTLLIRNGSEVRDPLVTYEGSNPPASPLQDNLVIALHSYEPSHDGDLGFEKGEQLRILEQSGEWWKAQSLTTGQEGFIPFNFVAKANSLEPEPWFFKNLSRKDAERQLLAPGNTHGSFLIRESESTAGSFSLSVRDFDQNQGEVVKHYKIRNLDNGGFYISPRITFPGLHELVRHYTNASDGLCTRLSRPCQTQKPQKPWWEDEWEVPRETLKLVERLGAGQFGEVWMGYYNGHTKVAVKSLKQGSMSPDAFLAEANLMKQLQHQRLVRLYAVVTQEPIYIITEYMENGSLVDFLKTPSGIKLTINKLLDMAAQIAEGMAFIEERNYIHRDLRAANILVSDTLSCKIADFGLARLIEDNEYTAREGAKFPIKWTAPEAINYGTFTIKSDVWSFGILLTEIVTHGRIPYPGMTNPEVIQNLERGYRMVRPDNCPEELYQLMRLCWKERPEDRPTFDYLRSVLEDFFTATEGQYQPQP
Chain of EPHA2 (P29317 whole entry): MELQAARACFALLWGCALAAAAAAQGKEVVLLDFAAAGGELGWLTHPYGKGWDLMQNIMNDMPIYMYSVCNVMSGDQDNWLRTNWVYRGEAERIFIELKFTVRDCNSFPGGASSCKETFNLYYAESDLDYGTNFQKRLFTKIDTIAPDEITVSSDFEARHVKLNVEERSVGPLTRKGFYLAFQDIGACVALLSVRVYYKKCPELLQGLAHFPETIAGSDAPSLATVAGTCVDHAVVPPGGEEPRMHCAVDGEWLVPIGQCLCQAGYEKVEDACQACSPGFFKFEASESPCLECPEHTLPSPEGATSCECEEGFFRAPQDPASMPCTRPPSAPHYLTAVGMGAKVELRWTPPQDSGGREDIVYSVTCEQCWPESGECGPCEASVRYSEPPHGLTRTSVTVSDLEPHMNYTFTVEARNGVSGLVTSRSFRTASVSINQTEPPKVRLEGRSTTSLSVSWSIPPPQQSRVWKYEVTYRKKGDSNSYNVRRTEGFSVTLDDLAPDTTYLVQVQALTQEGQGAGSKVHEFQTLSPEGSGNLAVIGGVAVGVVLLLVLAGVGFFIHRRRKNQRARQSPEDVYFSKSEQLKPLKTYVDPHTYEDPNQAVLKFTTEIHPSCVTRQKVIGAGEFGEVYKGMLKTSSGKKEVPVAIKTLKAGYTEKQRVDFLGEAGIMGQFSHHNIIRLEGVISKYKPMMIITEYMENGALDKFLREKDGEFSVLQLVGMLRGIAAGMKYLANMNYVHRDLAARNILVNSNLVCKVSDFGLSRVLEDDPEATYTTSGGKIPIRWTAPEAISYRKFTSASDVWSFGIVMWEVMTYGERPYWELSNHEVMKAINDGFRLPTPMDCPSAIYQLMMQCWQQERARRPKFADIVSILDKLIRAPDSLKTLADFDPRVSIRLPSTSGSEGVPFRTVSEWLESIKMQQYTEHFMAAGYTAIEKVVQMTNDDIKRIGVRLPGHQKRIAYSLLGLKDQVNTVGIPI
Chain of UniProt P35916 (P35916 whole entry): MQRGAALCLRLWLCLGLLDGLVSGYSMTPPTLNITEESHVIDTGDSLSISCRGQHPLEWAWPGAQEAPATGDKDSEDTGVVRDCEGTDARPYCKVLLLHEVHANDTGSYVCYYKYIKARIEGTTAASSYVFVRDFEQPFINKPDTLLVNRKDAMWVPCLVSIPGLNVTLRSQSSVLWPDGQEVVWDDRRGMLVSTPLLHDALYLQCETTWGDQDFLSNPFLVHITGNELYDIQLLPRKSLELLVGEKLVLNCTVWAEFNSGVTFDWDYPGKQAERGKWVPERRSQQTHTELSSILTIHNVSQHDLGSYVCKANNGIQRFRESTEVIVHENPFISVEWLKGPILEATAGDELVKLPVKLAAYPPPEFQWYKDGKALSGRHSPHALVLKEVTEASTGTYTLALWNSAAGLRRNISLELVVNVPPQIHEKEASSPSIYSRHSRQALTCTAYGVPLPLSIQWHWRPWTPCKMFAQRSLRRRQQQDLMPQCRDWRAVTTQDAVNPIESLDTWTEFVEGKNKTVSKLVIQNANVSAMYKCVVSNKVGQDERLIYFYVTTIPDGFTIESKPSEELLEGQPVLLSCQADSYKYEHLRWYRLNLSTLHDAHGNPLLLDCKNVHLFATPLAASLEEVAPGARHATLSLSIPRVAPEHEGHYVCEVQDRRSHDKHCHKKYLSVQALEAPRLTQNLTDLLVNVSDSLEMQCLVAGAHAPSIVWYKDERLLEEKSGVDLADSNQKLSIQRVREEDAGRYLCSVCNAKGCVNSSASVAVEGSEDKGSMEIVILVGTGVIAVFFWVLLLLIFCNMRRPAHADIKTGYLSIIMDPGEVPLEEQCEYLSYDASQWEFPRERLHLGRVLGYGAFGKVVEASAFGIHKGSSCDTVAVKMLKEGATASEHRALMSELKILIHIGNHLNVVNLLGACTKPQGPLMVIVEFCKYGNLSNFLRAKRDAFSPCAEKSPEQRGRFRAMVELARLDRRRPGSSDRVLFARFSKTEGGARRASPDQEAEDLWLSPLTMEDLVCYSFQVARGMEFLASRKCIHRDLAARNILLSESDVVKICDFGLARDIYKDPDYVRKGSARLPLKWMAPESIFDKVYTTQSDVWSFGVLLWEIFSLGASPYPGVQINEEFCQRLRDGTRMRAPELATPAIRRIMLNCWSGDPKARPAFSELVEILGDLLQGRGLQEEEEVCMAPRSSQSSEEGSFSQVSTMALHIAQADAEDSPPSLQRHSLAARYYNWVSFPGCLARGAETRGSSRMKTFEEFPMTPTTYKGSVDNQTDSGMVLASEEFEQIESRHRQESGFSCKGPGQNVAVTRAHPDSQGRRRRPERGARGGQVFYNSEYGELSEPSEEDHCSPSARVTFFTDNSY
Chain of RIPK2 (O43353 whole entry): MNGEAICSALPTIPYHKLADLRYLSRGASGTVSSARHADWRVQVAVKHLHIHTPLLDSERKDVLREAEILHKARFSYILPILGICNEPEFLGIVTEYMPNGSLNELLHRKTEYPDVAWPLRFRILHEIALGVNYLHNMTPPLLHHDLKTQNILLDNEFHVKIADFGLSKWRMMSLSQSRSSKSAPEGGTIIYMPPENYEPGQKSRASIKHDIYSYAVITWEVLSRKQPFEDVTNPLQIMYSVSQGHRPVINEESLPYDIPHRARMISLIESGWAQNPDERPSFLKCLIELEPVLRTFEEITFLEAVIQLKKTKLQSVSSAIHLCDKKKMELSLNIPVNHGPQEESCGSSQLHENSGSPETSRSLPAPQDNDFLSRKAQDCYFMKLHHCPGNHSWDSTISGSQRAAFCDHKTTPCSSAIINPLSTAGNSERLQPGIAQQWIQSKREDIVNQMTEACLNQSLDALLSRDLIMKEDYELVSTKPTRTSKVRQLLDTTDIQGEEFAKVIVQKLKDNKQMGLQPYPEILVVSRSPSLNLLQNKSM
Chain of UniProt Q16659 (Q16659 whole entry): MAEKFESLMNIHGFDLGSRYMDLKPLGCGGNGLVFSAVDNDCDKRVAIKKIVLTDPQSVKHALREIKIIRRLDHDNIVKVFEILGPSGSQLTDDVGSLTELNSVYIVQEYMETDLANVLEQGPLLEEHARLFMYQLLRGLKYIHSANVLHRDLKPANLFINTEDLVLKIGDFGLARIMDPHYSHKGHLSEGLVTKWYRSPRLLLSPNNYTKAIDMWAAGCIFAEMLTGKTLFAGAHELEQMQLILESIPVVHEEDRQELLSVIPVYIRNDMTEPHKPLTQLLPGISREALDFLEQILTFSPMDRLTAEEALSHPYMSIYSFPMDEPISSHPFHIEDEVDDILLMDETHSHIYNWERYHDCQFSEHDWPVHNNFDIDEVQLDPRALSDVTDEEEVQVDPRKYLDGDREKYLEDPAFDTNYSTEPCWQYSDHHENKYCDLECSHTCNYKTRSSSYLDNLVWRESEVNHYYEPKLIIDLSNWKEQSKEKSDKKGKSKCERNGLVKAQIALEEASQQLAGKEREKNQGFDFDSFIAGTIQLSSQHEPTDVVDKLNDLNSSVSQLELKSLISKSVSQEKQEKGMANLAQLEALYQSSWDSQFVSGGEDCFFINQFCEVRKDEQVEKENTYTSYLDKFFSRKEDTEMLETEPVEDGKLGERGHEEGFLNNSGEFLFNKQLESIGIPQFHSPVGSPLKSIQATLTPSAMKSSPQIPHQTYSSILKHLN
Chain of UniProt Q00536 (Q00536 whole entry): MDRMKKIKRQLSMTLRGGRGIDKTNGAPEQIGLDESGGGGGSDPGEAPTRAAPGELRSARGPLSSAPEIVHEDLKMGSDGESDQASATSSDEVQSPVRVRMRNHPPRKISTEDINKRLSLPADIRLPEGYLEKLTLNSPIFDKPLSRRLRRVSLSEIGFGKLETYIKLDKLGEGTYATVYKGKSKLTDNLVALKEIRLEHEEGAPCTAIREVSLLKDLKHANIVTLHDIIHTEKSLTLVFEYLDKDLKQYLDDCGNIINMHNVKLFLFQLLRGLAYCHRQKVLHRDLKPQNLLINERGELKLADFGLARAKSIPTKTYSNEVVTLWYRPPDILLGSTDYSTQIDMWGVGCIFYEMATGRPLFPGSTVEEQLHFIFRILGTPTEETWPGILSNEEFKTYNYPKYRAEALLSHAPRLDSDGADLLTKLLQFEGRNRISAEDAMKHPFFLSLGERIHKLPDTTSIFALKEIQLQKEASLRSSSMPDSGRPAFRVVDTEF

`O=C(NCCNC(=O)c1cc(Nc2cc(C3CC3)[nH]n2)nc(N2CCN(Cc3ccc(S(=O)(=O)F)cc3)CC2)n1)OC1CC/C=C/CCC1` (configuration not stated) was tested, and the pIC50 ([1]; cell material: Jurkat cells) was 5.85, the pIC50 ([1]; cell material: Jurkat lysate) was < 4.52 and the pIC50 ([1]; cell material: Lysate mix) was < 4.52. For the same compound, the pIC50 ([2]; cell material: Jurkat cells) was < 4.52, the pIC50 ([2]; cell material: Jurkat lysate) was < 4.52 and the pIC50 ([2]; cell material: Lysate mix) was < 4.52. The pIC50 ([3]; cell material: Jurkat cells) was 5.15, the pIC50 ([3]; cell material: Jurkat lysate) was < 4.52 and the pIC50 ([3]; cell material: Lysate mix) was < 4.52. For the same compound, the pIC50 [4] was < 4.52, the pIC50 [5] was < 4.52 and the pIC50 ([6]; cell material: Jurkat cells) was 4.81. The pIC50 ([6]; cell material: Jurkat lysate) was < 4.52, the pIC50 ([6]; cell material: Lysate mix) was < 4.52 and the pIC50 ([7]; cell material: Jurkat cells) was < 4.52. For the same compound, the pIC50 ([7]; cell material: Jurkat lysate) was < 4.52, the pIC50 ([7]; cell material: Lysate mix) was < 4.52 and the pIC50 [8] was < 4.52. For the same compound, the pIC50 ([9]; cell material: Jurkat cells) was 5.67 and the pIC50 ([9]; cell material: Jurkat lysate) was < 4.52.
For `Cc1cc(Nc2cc(C(=O)NCCNC(=O)OC3CC/C=C/CCC3)nc(N3CCN(Cc4ccc(S(=O)(=O)F)cc4)CC3)n2)n[nH]1` (configuration not stated), the pIC50 ([1]; cell material: Lysate mix) was < 4.52, the pIC50 ([2]; cell material: Lysate mix) was < 4.52 and the pIC50 ([3]; cell material: Lysate mix) was < 4.52. The pIC50 [4] was < 4.52, the pIC50 [5] was < 4.52 and the pIC50 ([6]; cell material: Lysate mix) was < 4.52. The pIC50 ([7]; cell material: Lysate mix) was < 4.52, the pIC50 [8] was < 4.52 and the pIC50 ([9]; cell material: Lysate mix) was < 4.52.
With `CCNC(=O)c1cc(Nc2cc(C3CC3)[nH]n2)nc(N2CCN(Cc3ccc(S(=O)(=O)F)cc3)CC2)n1` the pIC50 ([1]; cell material: Lysate mix) was 5.76, the pIC50 ([2]; cell material: Lysate mix) was < 4.52 and the pIC50 ([3]; cell material: Lysate mix) was 5.11. For the same compound, the pIC50 [4] was < 4.52, the pIC50 [5] was < 4.52 and the pIC50 ([6]; cell material: Lysate mix) was 5.41. The pIC50 ([7]; cell material: Lysate mix) was < 4.52, the pIC50 [8] was < 4.52 and the pIC50 ([9]; cell material: Lysate mix) was 5.89.
In the case of `CCNC(=O)c1cc(Nc2cc(C)[nH]n2)nc(N2CCN(Cc3ccc(S(=O)(=O)F)cc3)CC2)n1`, the pIC50 ([1]; cell material: Lysate mix) is reported as 4.76, the pIC50 ([2]; cell material: Lysate mix) is reported as < 4.52 and the pIC50 ([3]; cell material: Lysate mix) is reported as < 4.52. The pIC50 [4] was < 4.52, the pIC50 [5] was < 4.52 and the pIC50 ([6]; cell material: Lysate mix) was 4.78. The pIC50 ([7]; cell material: Lysate mix) was < 4.52, the pIC50 [8] was < 4.52 and the pIC50 ([9]; cell material: Lysate mix) was 5.72.
For `C#CCNC(=O)c1cc(Nc2cc(C3CC3)[nH]n2)nc(N2CCN(Cc3ccc(S(=O)(=O)F)cc3)CC2)n1`, the pIC50 ([1]; cell material: Jurkat cells) was 6.35, the pIC50 ([1]; cell material: Jurkat lysate) was 5.01 and the pIC50 ([1]; cell material: Lysate mix) was 5.89. The pIC50 ([2]; cell material: Jurkat cells) was 5.42, the pIC50 ([2]; cell material: Jurkat lysate) was < 4.52 and the pIC50 ([2]; cell material: Lysate mix) was < 4.52. The pIC50 ([3]; cell material: Jurkat cells) was 6.02, the pIC50 ([3]; cell material: Jurkat lysate) was 4.77 and the pIC50 ([3]; cell material: Lysate mix) was 5.43. For the same compound, the pIC50 [4] was < 4.52, the pIC50 [5] was < 4.52 and the pIC50 ([6]; cell material: Jurkat cells) was 5.75. The pIC50 ([6]; cell material: Jurkat lysate) was 4.84, the pIC50 ([6]; cell material: Lysate mix) was 5.46 and the pIC50 ([7]; cell material: Jurkat cells) was < 4.52. The pIC50 ([7]; cell material: Jurkat lysate) was < 4.52, the pIC50 ([7]; cell material: Lysate mix) was < 4.52 and the pIC50 [8] was < 4.52. For the same compound, the pIC50 ([9]; cell material: Jurkat cells) was 6.47, the pIC50 ([9]; cell material: Jurkat lysate) was 5.64 and the pIC50 ([9]; cell material: Lysate mix) was 6.07.
With `C#CCNC(=O)c1cc(Nc2cc(C)[nH]n2)nc(N2CCN(Cc3ccc(S(=O)(=O)F)cc3)CC2)n1` the pIC50 ([1]; cell material: Lysate mix) was < 4.52, the pIC50 ([2]; cell material: Lysate mix) was < 4.52 and the pIC50 ([3]; cell material: Lysate mix) was 4.65. The pIC50 [4] was < 4.52, the pIC50 [5] was < 4.52 and the pIC50 ([6]; cell material: Lysate mix) was 4.71. The pIC50 ([7]; cell material: Lysate mix) was < 4.52, the pIC50 [8] was < 4.52 and the pIC50 ([9]; cell material: Lysate mix) was 5.66.
